Measured values reported in patent US20230382919A1, “OXA- IBOGAINE INSPIRED ANALOGUES FOR TREATMENT OF NEUROLOGICAL AND PSYCHIATRIC DISORDERS” (The Trustees of Columbia University in the City of New York, priority 2021, published 2023).
Like-named read-outs stand apart in the source and are kept apart here.

Columns and labels:
mouse MOR (mMOR) = mouse MOR (mMOR) (Mus musculus (Mouse), UniProt P42866); assay: G-protein BRET functional opioid assay, MOR; assay type: cell-based; conditions: for Emax: normalized to DAMGO, read-out: % of control agonist maximal response (MOR)
Description: (§1) HEK-293T cells were obtained from the American Type Culture Collection (Rockville, MD) and were cultured in a 5% CO2 atmosphere at 37° C. in Dulbecco's Modified Eagle Medium (high glucose #11965; Life Technologies Corp.; Grand Island, NY) supplemented with 10% FBS (Premium Select, Atlanta Biologicals; Atlanta, GA), 100 U/mL penicillin, and 100 μg/mL streptomycin (#15140, Life Technologies). DNA Constructs: The mouse MOR (mMOR), the mouse DOR (mDOR) and the rat KOR (rKOR) were provided by Dr Lakshmi Devi at Mount Sinai School of Medicine. The G proteins used included untagged GαoB with Renilla luciferase 8 (RLuc8) inserted at position 91 (GαoB-RLuc8); Gβ1 (β1); Gγ2 which was fused to the full-length mVenus at its N-terminus via the amino acid linker GSAGT (mVenus-γ2). All constructs were sequence confirmed prior to use in experiments.
(§2) Transfection: The following cDNA amounts were transfected into HEK-293T cells (5×10^6 cells/plate) in 10-cm dishes using polyethylenimine (PEI) in a 1:1 ratio (diluted in Opti-MEM, Life Technologies): 2.5 μg MOR/DOR/KOR, 0.125 μg GαoBRLuc8, 6.25 μg (1, 6.25 μg mVenus-γ2. Cells were maintained in the HEK-293T media described above. After 24 hours the media was changed, and the experiment was performed 24 hours later (48 hours after transfection). BRET: Transfected cells were dissociated and re-suspended in phosphate-buffered saline (PBS). Approximately 200,000 cells/well were added to a black-framed, white-well, 96-well plate (#60050; Perkin Elmer; Waltham, MA). The microplate was centrifuged and the cells were resuspended in PBS. After 5 minutes, 5 μM of the luciferase substrate coelenterazine H was added to each well. After 5 minutes, ligands were added and the BRET signal was measured 5 minutes later on a PHERAstar FS plate reader. The BRET signal was quantified by calculating the ratio of the light emitted by the energy acceptor, mVenus (510-540 nm), over the light emitted by the energy donor, RLuc8 (485 nm). This drug-induced BRET signal was normalized using the Emax of a known agonist (DAMGO, DPDPE or U-50,488) as the maximal response at MOR/DOR/KOR. Data were analyzed using the dose-response-stimulation nonlinear curve fitting model (log[agonist] vs. response (three parameters)).

mouse DOR (mDOR) = mouse DOR (mDOR) (Mus musculus (Mouse), UniProt P32300); assay: G-protein BRET functional opioid assay, DOR; assay type: cell-based; conditions: for Emax: normalized to DPDPE, read-out: % of control agonist maximal response (DOR)
Description: as §1, §2

rat KOR (rKOR) = rat KOR (rKOR) (Rattus norvegicus (Rat), UniProt P34975); assay: G-protein BRET functional opioid assay, KOR; assay type: cell-based; conditions: for Emax: normalized to U-50,488, read-out: % of control agonist maximal response (KOR)
Description: as §1, §2

KOR = KOR (Rattus norvegicus (Rat), UniProt P34975); assay: KOR agonist (cAMP) assay, CHO cells (commercial); assay type: cell-based; conditions: for Emax at 10 µM / Emax: read-out: % of control agonist maximal response (KOR)
From the text: (§3) Potency (IC50 and EC50) and efficacy values for hERG, rKOR-CHO, hMOR-CHO, h5-HT2A-HEK, h5-HT2B-CHO, h5-HT2C HEK were obtained by screening the selected compounds via commercially available assay services.

5-HT2A = 5-HT2A (Homo sapiens (Human), UniProt P28223); assay: 5-HT2A agonist (IP1) assay, HEK-293 cells (commercial); assay type: cell-based; conditions: for Emax at 10 µM: HEK293, read-out: % of control agonist maximal response (5-HT2A); for EC50: IP1 agonist assay
From the text: as §3

5-HT2B = 5-HT2B (Homo sapiens (Human), UniProt P41595); assay: 5-HT2B agonist (IP1) assay, CHO cells (commercial); assay type: cell-based; conditions: for Emax at 10 µM: CHO, read-out: % of control agonist maximal response (5-HT2B); for EC50: IP1 agonist assay
From the text: as §3

5-HT2C = 5-HT2C (Homo sapiens (Human), UniProt P28335); assay: 5-HT2C agonist (IP1) assay, HEK-293 cells (commercial); assay type: cell-based; conditions: for Emax at 10 µM: HEK293, read-out: % of control agonist maximal response (5-HT2C); for EC50: IP1 agonist assay
From the text: as §3

hERG = hERG (Homo sapiens (Human), UniProt Q12809); assay: hERG radioligand ([3H]Dofetilide) displacement binding assay (commercial); conditions: for IC50: [3H]Dofetilide displacement
From the text: as §3

hSERT = hSERT (Homo sapiens (Human), UniProt P31645); assay: hSERT fluorometric screening assay (APP+ uptake, hSERT-HEK cells); assay type: cell-based; conditions: average ± SEM, n ≥ 4; read-out: IC50 SERT [μM ± SEM]
Description: (§4) Inhibition assays of transporters (hSERT and rVMAT2) were performed according to the following protocol.
(§5) Stably transfected hSERT-HEK and rVMAT2-HEK cellular cultures were maintained in Dulbecco's Minimal Essential Medium (DMEM) with GlutaMAX (Gibco) with the following additions: 10% (v/v) Fetal Bovine Serum (FBS, Atlanta Biologicals), 100 U/mL Penicillin (Gibco), and 10 μg/mL Streptomycin (Gibco). With regards to the former cell lineage, an additional ingredient, 500 μg/mL Geneticin (G418) (Gibco) was included to preserve the respective transgene.
(§6) For both hSERT and rVMAT2 screening experiments, respective singly transfected cells were seeded at a density of 0.09×10^6 cells/well in poly-D-Lysine (Alamanda Polymers, Inc.) coated white solid-bottom 96-well plates (Costar). Growth was permitted for approximately 44 hours in said aqueous media and at an incubation environment of 37° C. and 5% Carbon Dioxide. At the beginning of the experiment, the cellular growth solution was aspirated, and individual cells were rinsed with 150 μL of 1×Dulbecco's Phosphate Buffered Saline (PBS; HyClone). 63 μL of Experimental Media (consisting of the following contents: DMEM without phenol red but with 4.5 g/L of D-Glucose (Gibco), 1% (v/v) FBS (Atlanta Biologicals), 100 U/mL Penicillin (Gibco), and 10 μg/mL Streptomycin (Gibco)) with 2×tiered concentrations of inhibitor (or DMSO, the vehicle of these experiments) were added to the respective wells. Control inhibitors used in these studies include Imipramine for hSERT experiments, and Reserpine for rVMAT2 experiments (Eiden, L. E. and Weihe, E. 2011; Sette, M. et al. 1983). At the conclusion of the pre-incubation period (60 minutes for hSERT experiments and 30 minutes for rVMAT2 experiments), 63 μL of Experimental Media containing 2×various concentrations of tested inhibitor (or vehicle) along with a specified amount of fluorescent substrate, APP^+ (Karpowicz, R. J. et al 2013) (final concentration: 1.1 μM for hSERT experiments) or FFN206 (Hu, G. et al. 2013) (final concentration: 0.75 μM for rVMAT2 experiments) were added to the present solution contained within the wells. […] A final solution of 120 μL of PBS is finally added to all corresponding wells for cell maintenance before undergoing fluorescence uptake reading by a BioTek H1MF plate reader. […]
(§7) Numerical analysis of the collected experimental data preceded as accordingly. Respective inhibitor values were first subtracted from vehicular values to quantify the respective fluorescence uptake. This metric was then analyzed using the dose-response-inhibitor nonlinear curve fitting model ([inhibitor] vs response (three parameters)) as supplied by GraphPad Prism 8 software. […]

rVMAT2 = rVMAT2 (Rattus norvegicus (Rat), UniProt Q01827); assay: rVMAT2 fluorometric screening assay (FFN206 uptake, rVMAT2-HEK cells); assay type: cell-based; conditions: average ± SEM, n ≥ 4; read-out: IC50 VMAT2 [μM ± SEM]
Description: as §4, §5, §6, §7

[1] = Table 2, cAMP agonist assay, rat KOR, CHO

Chain of rVMAT2 (Q01827 whole entry): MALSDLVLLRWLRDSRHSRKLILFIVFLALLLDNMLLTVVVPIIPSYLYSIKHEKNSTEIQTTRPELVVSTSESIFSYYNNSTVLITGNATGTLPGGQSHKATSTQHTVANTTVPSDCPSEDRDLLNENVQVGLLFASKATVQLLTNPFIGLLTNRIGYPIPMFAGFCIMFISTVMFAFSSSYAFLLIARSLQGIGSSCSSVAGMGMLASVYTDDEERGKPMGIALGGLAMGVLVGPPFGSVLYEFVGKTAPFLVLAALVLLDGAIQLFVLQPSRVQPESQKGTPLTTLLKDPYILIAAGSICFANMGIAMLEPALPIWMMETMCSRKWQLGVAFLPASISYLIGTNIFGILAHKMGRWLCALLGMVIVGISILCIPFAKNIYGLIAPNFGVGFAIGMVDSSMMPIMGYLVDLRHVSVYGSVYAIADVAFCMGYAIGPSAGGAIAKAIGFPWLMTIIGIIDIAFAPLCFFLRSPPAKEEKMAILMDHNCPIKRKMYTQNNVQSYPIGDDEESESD
Chain of mouse MOR (mMOR) (P42866 whole entry, looked up): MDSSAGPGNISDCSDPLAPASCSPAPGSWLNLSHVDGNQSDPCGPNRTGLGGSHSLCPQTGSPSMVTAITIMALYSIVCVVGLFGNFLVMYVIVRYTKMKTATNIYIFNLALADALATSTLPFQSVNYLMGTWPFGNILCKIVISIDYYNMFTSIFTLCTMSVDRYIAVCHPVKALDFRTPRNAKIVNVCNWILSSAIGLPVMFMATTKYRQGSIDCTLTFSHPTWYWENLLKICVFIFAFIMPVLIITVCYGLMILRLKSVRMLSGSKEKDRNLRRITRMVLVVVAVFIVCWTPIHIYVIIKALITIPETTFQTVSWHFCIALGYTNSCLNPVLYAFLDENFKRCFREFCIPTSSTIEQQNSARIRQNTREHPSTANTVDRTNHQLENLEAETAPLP
Chain of hERG (Q12809 whole entry): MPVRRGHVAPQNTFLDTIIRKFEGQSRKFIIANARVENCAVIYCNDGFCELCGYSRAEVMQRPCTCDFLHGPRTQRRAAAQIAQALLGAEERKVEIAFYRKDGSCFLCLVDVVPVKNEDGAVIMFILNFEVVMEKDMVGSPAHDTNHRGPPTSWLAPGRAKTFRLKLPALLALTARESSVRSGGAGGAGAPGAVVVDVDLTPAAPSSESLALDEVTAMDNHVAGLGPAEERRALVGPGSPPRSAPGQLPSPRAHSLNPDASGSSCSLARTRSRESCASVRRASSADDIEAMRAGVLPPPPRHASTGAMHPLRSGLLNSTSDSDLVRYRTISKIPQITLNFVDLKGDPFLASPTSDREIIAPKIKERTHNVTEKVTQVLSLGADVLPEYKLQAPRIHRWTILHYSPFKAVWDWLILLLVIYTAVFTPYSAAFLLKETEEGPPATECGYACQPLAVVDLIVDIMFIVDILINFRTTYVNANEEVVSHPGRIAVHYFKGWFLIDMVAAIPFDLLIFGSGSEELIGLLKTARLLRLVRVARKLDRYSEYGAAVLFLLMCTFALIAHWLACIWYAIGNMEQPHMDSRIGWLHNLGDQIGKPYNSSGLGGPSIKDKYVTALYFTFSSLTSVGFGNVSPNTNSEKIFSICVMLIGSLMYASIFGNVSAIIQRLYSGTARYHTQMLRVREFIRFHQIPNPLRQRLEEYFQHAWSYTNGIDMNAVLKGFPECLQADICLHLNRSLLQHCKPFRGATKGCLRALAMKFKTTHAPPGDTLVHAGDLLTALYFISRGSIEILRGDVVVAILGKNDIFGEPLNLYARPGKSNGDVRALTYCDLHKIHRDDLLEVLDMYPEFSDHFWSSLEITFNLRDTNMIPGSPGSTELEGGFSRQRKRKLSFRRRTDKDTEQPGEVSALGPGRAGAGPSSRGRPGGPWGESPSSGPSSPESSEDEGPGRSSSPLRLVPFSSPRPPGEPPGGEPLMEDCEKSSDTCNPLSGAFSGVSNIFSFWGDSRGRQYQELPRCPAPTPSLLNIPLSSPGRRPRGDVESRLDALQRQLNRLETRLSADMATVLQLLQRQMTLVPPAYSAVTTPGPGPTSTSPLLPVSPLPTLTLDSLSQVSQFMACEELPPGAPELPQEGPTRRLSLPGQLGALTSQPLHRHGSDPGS
Chain of 5-HT2C (P28335 whole entry, looked up): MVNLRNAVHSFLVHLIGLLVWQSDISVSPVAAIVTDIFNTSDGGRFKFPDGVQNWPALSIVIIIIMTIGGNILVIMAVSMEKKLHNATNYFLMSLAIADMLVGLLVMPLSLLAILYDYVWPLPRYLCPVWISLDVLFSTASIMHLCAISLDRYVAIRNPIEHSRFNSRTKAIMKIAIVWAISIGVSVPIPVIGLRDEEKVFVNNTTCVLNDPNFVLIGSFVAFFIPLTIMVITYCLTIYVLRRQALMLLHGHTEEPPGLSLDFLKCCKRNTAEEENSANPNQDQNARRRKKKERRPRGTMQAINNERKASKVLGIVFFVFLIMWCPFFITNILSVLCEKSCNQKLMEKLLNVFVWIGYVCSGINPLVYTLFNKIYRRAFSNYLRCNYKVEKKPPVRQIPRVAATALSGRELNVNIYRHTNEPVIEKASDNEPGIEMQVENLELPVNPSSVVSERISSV
Chain of 5-HT2B (P41595 whole entry): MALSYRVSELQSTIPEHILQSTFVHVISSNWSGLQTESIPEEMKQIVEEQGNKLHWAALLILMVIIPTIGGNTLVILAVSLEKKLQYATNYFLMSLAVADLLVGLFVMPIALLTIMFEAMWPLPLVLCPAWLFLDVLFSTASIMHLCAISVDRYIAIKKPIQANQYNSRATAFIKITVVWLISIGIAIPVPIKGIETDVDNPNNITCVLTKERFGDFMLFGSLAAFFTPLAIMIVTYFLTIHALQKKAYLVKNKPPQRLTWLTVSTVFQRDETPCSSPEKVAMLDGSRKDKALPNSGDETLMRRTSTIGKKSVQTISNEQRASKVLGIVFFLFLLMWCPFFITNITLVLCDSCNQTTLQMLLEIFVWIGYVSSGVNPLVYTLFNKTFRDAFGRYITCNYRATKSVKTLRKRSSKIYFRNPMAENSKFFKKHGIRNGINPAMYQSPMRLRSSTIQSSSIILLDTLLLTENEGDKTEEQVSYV

CC1Cc2oc3ccc(O)cc3c2CCN1C (stereo not drawn)
EC50 (mouse MOR (mMOR)): 320 nM | Emax (mouse MOR (mMOR)): 46% | EC50 (mouse DOR (mDOR)): 1200 nM | Emax (mouse DOR (mDOR)): 66% | EC50 (rat KOR (rKOR)): 79 nM | Emax (rat KOR (rKOR)): 53%

c1ccc2c3c(oc2c1)CCNCC3 [drawing 161]
Emax at 10 µM (KOR; CHO, Table 2): 36% | EC50 (KOR; [1]): ~1200 nM | Emax at 10 µM (5-HT2A; Table 2): 77% | EC50 (5-HT2A; Table 2): ~1000 nM | Emax at 10 µM (5-HT2B; Table 2): 20% | EC50 (5-HT2B; Table 2): > 10000 nM | Emax at 10 µM (5-HT2C; Table 2): 90% | EC50 (5-HT2C; Table 2): < 100 nM

CN1CCc2oc3ccccc3c2CC1 [drawing 162]
IC50 (hERG; Table 2, HEK-293): > 10000 nM | inhibition at 10 µM (hERG; human, HEK-293 cells expressing hERG, probe [3H]Dofetilide, Table 2, at 10 μM, read-out: % inhibition of control specific binding (hERG)): 11% | Emax at 10 µM (KOR; CHO, Table 2): 36% | EC50 (KOR; [1]): ~4200 nM | Emax at 10 µM (5-HT2A; Table 2): 26% | EC50 (5-HT2A; Table 2): > 10000 nM | Emax at 10 µM (5-HT2B; Table 2): 4% | EC50 (5-HT2B; Table 2): > 10000 nM | Emax at 10 µM (5-HT2C; Table 2): 99% | EC50 (5-HT2C; Table 2): ~200 nM

c1ccc2c3c(oc2c1)CCCNC3 [drawing 163]
Emax at 10 µM (KOR; CHO, Table 2): 45% | EC50 (KOR; [1]): ~4400 nM | Emax at 10 µM (5-HT2A; Table 2): 26% | EC50 (5-HT2A; Table 2): ~60000 nM | Emax at 10 µM (5-HT2B; Table 2): 22% | EC50 (5-HT2B; Table 2): > 10000 nM | Emax at 10 µM (5-HT2C; Table 2): 78% | EC50 (5-HT2C; Table 2): ~1300 nM

CN1CCCc2oc3ccccc3c2C1 [drawing 164]
Emax at 10 µM (KOR; CHO, Table 2): 47% | EC50 (KOR; [1]): ~3000 nM | Emax at 10 µM (5-HT2A; Table 2): 4% | EC50 (5-HT2A; Table 2): > 10000 nM | Emax at 10 µM (5-HT2B; Table 2): 3% | EC50 (5-HT2B; Table 2): > 10000 nM | Emax at 10 µM (5-HT2C; Table 2): 44% | EC50 (5-HT2C; Table 2): ~14000 nM

c1ccc2c3c(oc2c1)CCNCC3 [drawing 165]
IC50 (hSERT): 0.45 ± 0.06 µM | IC50 (rVMAT2): 1.4 ± 0.23 µM

CN1CCc2oc3ccccc3c2CC1 [drawing 166]
IC50 (hSERT): 1.4 ± 0.3 µM | IC50 (rVMAT2): 4.9 ± 0.94 µM

c1ccc2c3c(oc2c1)CCCNC3 [drawing 167]
IC50 (hSERT): 11 ± 2.9 µM | IC50 (rVMAT2): 0.061 ± 0.01 µM

CN1CCCc2oc3ccccc3c2C1 [drawing 168]
IC50 (hSERT): 7.1 ± 2.3 µM | IC50 (rVMAT2): 15 ± 4.6 µM

Oc1ccc2oc3c(c2c1)CCNCC3 [drawing 169]
Emax at 10 µM (5-HT2A; Table 4): 72% | EC50 (5-HT2A; Table 4): 600 nM | Emax at 10 µM (5-HT2B; Table 4): 19% | EC50 (5-HT2B; Table 4): > 10000 nM | Emax at 10 µM (5-HT2C; Table 4): 93% | EC50 (5-HT2C; Table 4): 100 nM

CC1Cc2oc3ccc(O)cc3c2CCN1 (stereo not drawn) [drawing 170]
Emax at 10 µM (5-HT2A; Table 4): 45% | EC50 (5-HT2A; Table 4): 1900 nM | Emax at 10 µM (5-HT2C; Table 4): 86% | EC50 (5-HT2C; Table 4): 400 nM

Oc1ccc2oc3c(c2c1)CCN1CCCC3C1 (stereo not drawn) [drawing 171]
IC50 (hERG; Table 4): ~60000 nM | inhibition at 30 µM (hERG; human, HEK-293 cells expressing hERG, probe [3H]Dofetilide, Table 4, efficacy at 30 μM, read-out: % inhibition of control specific binding (hERG)): 38% | Emax at 10 µM (5-HT2A; Table 4): 1% | EC50 (5-HT2A; Table 4): > 10000 nM | Emax at 10 µM (5-HT2B; Table 4): 5% | EC50 (5-HT2B; Table 4): 400 nM | Emax at 10 µM (5-HT2C; Table 4): < 0% | EC50 (5-HT2C; Table 4): > 10000 nM

Oc1ccc2oc3c(c2c1)CCNCC3 [drawing 172]
Emax at 10 µM (KOR; CHO, Table 5, CAMP Assay): < 0% | EC50 (KOR; Table 5, CAMP Assay): > 10000 nM

CC1Cc2oc3ccc(O)cc3c2CCN1 (stereo not drawn) [drawing 173]
Emax (KOR; CHO, Table 5, CAMP Assay): 96% | EC50 (KOR; Table 5, CAMP Assay): 60 nM | EC50 (mouse MOR (mMOR)): 200 nM | Emax (mouse MOR (mMOR)): 16% | EC50 (mouse DOR (mDOR)): 620 nM | Emax (mouse DOR (mDOR)): 45% | EC50 (rat KOR (rKOR)): 130 nM | Emax (rat KOR (rKOR)): 36%

Oc1ccc2oc3c(c2c1)CCN1CCCC3C1 (stereo not drawn) [drawing 175]
Emax (KOR; CHO, Table 5, CAMP Assay): 91% | EC50 (KOR; Table 5, CAMP Assay): 50 nM | EC50 (mouse MOR (mMOR)): 110 nM | Emax (mouse MOR (mMOR)): 44% | EC50 (mouse DOR (mDOR)): 120 nM | Emax (mouse DOR (mDOR)): 55% | EC50 (rat KOR (rKOR)): 140 nM | Emax (rat KOR (rKOR)): 30%
